How the values were obtained:
[1] = tested on: side effects of chemotherapy; experiment: Case histories of patients given fatty acid derivatives with chemotherapy; type: in vivo, human patients
Excerpt: The following histories illustrate use of the invention
This chemotherapy regime normally causes severe vomiting and nausea, marked malaise and anorexia.
C. […] The chemotherapy regime normally causes nausea, vomiting, mucositis and white cell suppression.
This normally causes nausea, vomiting, white cell suppression and mucositis.

[2] = tested on: cardiotoxicity of doxorubicin; experiment: Cardiotoxicity of doxorubicin in mice pre-treated with fatty acids; type: in vivo; conditions: 20 mg doxorubicin intraperitoneally, fatty acid pre-treatment
[3] = tested on: toxic side effects of chemotherapy; experiment: Clinical observations in cancer patients receiving conventional chemotherapy plus fatty acids; type: in vivo, human patients; conditions: patients receiving conventional chemotherapy and the fatty acid at the same time
Excerpt: In many instances, the fatty acids have been given to patients who at that same time were receiving conventional chemotherapy for their cancer.

[4] = tested on: streptozotocin damage to the islet cells of the pancreas; experiment: Streptozotocin-induced diabetes in rats; type: in vivo; conditions: fatty acid administered prior to streptozotocin
Excerpt: In a third animal study, the anti-cancer streptozotocin was used. A major effect of this compound is to damage the islet cells of the pancreas and consequently to lead to insulin dependent diabetes.

[5] = tested on: lung toxicity of bleomycin; experiment: Lung toxicity (fibrosis) of intratracheal bleomycin in animals; type: in vivo; conditions: bleomycin into the trachea, about 5-10 IU per kg body weight, 2-4 weeks
Description: We have recently supported the clinical observations by animal studies on the cardiotoxicity of doxorubicin and the lung toxicity of bleomycin. When 20 mg of doxorubicin (DOX) is given intraperitoneally to mice, the animals usually die within two weeks because of cardiac damage. When animals were pre-treated with LA or with GLA or with EPA or with DHA in various doses and chemical forms, the death rate to the same dose of doxorubicin was reduced to between 20% and 60% depending on the dose and the precise chemical administered. […] Similarly, bleomycin introduced into the trachea of animals under anaesthesia at a dose of about 5-10 IU per kg body weight, within 2-4 weeks the animals develop severe lung fibrosis which is very similar to the fibrosis which occurs in human patients treated with bleomycin. […] In a third animal study, the anti-cancer streptozotocin was used. A major effect of this compound is to damage the islet cells of the pancreas and consequently to lead to insulin dependent diabetes.

[6] = case C, breast cancer, 'CMF' regime, 30 g cumulative intravenously, then 2 g/day oral
[7] = case D, metastatic colon cancer, 5-fluorouracil, 3 g/day from two weeks before and during chemotherapy

## CCCCC/C=C\C/C=C\C/C=C\CCCCC(=O)[O-].[Li+] [lithium salt of gammalinolenic acid]
[1]; case B, Hodgkin's disease, 'MOPP' regime, 3 g per day orally
  general well-being: remained well and able to continue working
[1]; case B, Hodgkin's disease, 'MOPP' regime, 3 g per day orally from one week before and throughout chemotherapy
  nausea: only mild nausea
[1]; [6]
  nausea: only mild nausea
  suppression of the white cell count: less than expected
  vomiting or mucositis: no vomiting or mucositis

## CCCCC/C=C\C/C=C\CCCCCCCC(=O)O [LA, linoleic acid]
[2]
  reduction in cardiac weight characteristic of doxorubicin toxicity: considerably attenuated
[3]
  toxic side effects of chemotherapy: substantially reduced
[4]
  likelihood of the development of diabetes: greatly reduced
[5]
  lung pathological changes and increased production of fibrous tissue: almost entirely suppress

## CCCCC/C=C\C/C=C\C/C=C\CCCCC(=O)O [GLA, gamma-linolenic acid]
[2]
  reduction in cardiac weight characteristic of doxorubicin toxicity: considerably attenuated
[3]
  toxic side effects of chemotherapy: substantially reduced
[4]
  likelihood of the development of diabetes: greatly reduced
[5]
  lung pathological changes and increased production of fibrous tissue: almost entirely suppress

## dilinoleoyl-monogammalinolenoyl-glycerol [DLMG]
[1]; case A, glioblastoma patient, carmustine
  general well-being: felt well throughout
[1]; case A, glioblastoma patient, carmustine, given prior to and during the course
  nausea: only very mild nausea

## CC/C=C\C/C=C\C/C=C\C/C=C\C/C=C\CCCC(=O)O [EPA, eicosapentaenoic acid]
[3]
  toxic side effects of chemotherapy: substantially reduced

## CC/C=C\C/C=C\C/C=C\C/C=C\C/C=C\C/C=C\CCC(=O)O [DHA, docosahexaenoic acid]
[3]
  toxic side effects of chemotherapy: substantially reduced

## CC/C=C\C/C=C\C/C=C\C/C=C\C/C=C\CCCC(=O)OCC(COC(=O)CCC/C=C\C/C=C\C/C=C\C/C=C\C/C=C\CC)OC(=O)CCC/C=C\C/C=C\C/C=C\C/C=C\C/C=C\CC [triglyceride of eicosapentaenoic acid]
[1]; [7]
  nausea and white cell suppression: less than expected
  vomiting or mucositis: no vomiting or mucositis

Source: patent US6407075B1, “Fatty acid treatment” (priority 1996, dated 2002)
